Measurements: patent US11298346B2, “Methods for treatment of fibrotic diseases” (Beta Cat Pharmaceuticals, Inc., priority 2017, dated 2022)
Several values for one entry are separate records, joined by “and”; a condition that tells them apart may be missing. Equal entries are not always repeated.

Columns and labels:
[1] = system: bleomycin-induced pulmonary fibrosis; experiment: Bleomycin-induced pulmonary fibrosis mouse model, intravenous Tegavivint; assay type: in vivo, C57BL/6 wild-type mice; settings: 50 mg/kg biw tail-vein injection
Method: In a pilot study, Tegavivint at 50 mg/kg was administered biw (twice a week) via tail-vein injection to C57BL/6 wild-type mice. Bleomycin was administered to the mice intratracheally on day 0 to induce pulmonary fibrosis, and Tegavivint or the vehicle (5% dextrose in water) was administered on days 6, 10, 14, 18 and 21. The purpose of this experiment was to evaluate the effect of systemically-administered Tegavivint on bleomycin-induced pulmonary fibrosis in vivo.

[2] = system: bleomycin-induced idiopathic pulmonary fibrosis (IPF); experiment: Nebulized tegavivint nanosuspension in mouse model of bleomycin-induced idiopathic pulmonary fibrosis; assay type: in vivo, C57BL/6 male mice
Method: The purpose of this experiment was to investigate tegavivint nanosuspension in a mouse model of bleomycin-induced idiopathic pulmonary fibrosis (IPF). Test articles 10 were as follows:
Tegavivint (BC2059) in a nano-milled suspension 25 mg/mL in 0.625% poloxamer 188 and 10% sorbitol. The compound was refrigerated at about 4° C.
Nebulizing equipment was Altera ultrasonic eRapid machine nebulizer (model #678G1002).
Animals were 8-12 week old C57BL/6 male mice (Jackson Lab, Bar Harbor, Me.).
Murine model of pulmonary fibrosis was induced by intratracheally (IT) injected bleomycin (APP Pharmaceuticals, Schaumburg, Ill.). One dose of 0.025 U bleomycin dissolved in 50 microliters of Saline 0.9%, or PBS as control was administered to each animal on day 0.
Tegavivint nanosuspension was applied to Group 3 in the form of aerosols, through the method of whole body exposure. The mice were placed inside a plastic box. This box was sealed and connected by one of its sides to the outlet of the nebulizer device, and on the other side to a system of closed water. The whole procedure was carried out inside the fume hood of the animal room. In each treatment session, 5 ml of 25 mg/ml Tegavivint (125 mg) was nebulized over 15 min to each group of 4-5 mice in the chamber. To increase exposure of the mice to the aerosol, Tegavivint that precipitated in the aerosol chamber was collected with a syringe and re-nebulized a second and a third time. Mice were nebulized twice a day between day 5 and day 21 after administration of bleomycin. Group 1 and 2 received nebulized vehicle 5 ml in the same manner.
The body weight of animals was recorded on Days 0, 5, 8, 12, 16, 19, and 21.
Measurements of lung mechanics were performed on Day 21 as previously described (Morales-Nebreda L, et al. AJRCMB 2015) on Day 21 using a FlexiVent mouse ventilator (Scireq, Montreal, PQ, Canada) according to the protocols established by Scireq. A standard ventilation history for each mouse was obtained with three total lung capacity maneuvers before the forced oscillation and quasistatic pressure-volume curve protocols that were used to calculate airway resistance, dynamic and quasistatic tissue compliance, and elastance.
On Day 21 all animals were sacrificed and lungs were harvested. Total lung collagen content was evaluated using the Hydroxyproline Assay as previously described (Morales-Nebreda L, et al. AJRCMB 2015). In brief, mouse lungs were harvested and suspended in 1 ml of 0.5 M acetic acid and then homogenized, first with a tissue homogenizer (60 s on ice) and then using 15 strokes in a Dounce homogenizer (on ice). The resulting homogenate was spun (12,000×g) for 10 minutes, and the supernatant was used for subsequent analyses. Collagen standards were prepared in 0.5 M acetic acid using rat tail collagen (Sigma-Aldrich, St. Louis, Mo.). Picrosirius red dye was prepared by mixing 0.2 g of Sirius red F3B (Sigma-Aldrich) with 200 ml of […]; 1 ml of the Picrosirius red dye was added to 100 μl of the collagen standard or the lung homogenates and then mixed continuously at room temperature on an orbital shaker for 30 minutes. The precipitated collagen was then pelleted and washed once with 0.5 M acetic acid (12,000×g for 15 min each). The resulting pellet was resuspended in 1 ml of 0.5 M NaOH and Sirius red staining was quantified spectrophotometrically (540 nm) using a colorimetric plate reader (Bio-Rad, Hercules, Calif.).

[3] = system: syngeneic primary palmar fascia fibroblasts derived from visibly non-fibrotic palmar fascia (PF249 cells); experiment: Alamar Blue proliferation/viability assay, PF249 cells; assay type: cell-based, human; settings: for proliferation/viability: PF249 cells, 48 and 72 hrs relative to 24 hrs
Method: Tegavivint (BC-2059) powder was reconstituted it in 100% dimethyl sulfoxide (DMSO) to a 10_mM stock solution. The stock was diluted to 100 nM in serum-free media (α minimal essential medium, αMEM), and further diluted to 100 pM in serum-free αMEM immediately before the analyses were performed. Serial dilutions from 100 pM down to 0.78 pM were assessed in various assays. 0.001% DMSO in αMEM was used as the vehicle control, and αMEM alone was used as an untreated control, in a subset of analyses.
Proliferation/viability analyses were performed in triplicate on primary palmar fascia fibroblasts derived from the fibrotic palmar fascia (DD cells) of 2 patients with Dupuytren's disease (DD249, DD77) and syngeneic primary palmar fascia fibroblasts derived from visibly non-fibrotic palmar fascia (PF cells) from these patients (PF249, PF77). Cells were cultured on type-1 collagen coated 96 well trays for these analyses to better replicate substrate interactions in vivo. Two independent assays were used for these analyses: Alamar Blue assays for analyses up to 72 hrs in cells derive from 1 patient, and Water Soluble Tetrazolium-(WST-1) assays for analyses up to 24 hrs in cells derived from the other patients. Significant effects of treatment on proliferation over time were detected by ANOVA repeated measures.

[4] = target: T1, TBL1 (Homo sapiens, UniProt O60907); settings: background statement, no method given; cited from earlier work
T1 sequence (O60907 1-577): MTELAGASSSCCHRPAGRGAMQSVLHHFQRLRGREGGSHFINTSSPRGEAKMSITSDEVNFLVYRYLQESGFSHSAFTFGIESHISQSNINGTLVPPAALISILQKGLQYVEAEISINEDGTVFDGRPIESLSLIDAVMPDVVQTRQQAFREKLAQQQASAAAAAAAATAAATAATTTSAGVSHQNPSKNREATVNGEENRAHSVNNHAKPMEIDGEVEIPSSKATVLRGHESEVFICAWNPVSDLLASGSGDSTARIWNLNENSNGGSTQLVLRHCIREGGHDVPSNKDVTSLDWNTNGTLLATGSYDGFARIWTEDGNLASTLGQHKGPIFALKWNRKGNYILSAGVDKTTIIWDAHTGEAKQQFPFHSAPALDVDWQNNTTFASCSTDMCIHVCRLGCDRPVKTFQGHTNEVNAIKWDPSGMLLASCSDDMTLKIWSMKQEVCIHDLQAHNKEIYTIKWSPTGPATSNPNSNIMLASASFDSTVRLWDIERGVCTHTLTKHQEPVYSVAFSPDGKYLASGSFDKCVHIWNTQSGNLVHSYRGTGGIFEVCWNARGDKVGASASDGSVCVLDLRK

[5] = Tegavivint alone (no bleomycin)
[6] = Group 3, inhaled tegavivint after bleomycin injury
[7] = Group 3: IT bleomycin Day 0, 5 ml of 25 mg/ml tegavivint aerosol BID Day 5-21, Day 21, individual animals

Tegavivint
pulmonary compliance ([1]; Tegavivint after bleomycin): partially restored
total soluble collagen content in lung tissue (Sircol assay) ([1]; Tegavivint after bleomycin): completely restored the collagen level to the same as vehicle-only controls
pulmonary compliance [1, 5]: no effect
total soluble collagen content in lung tissue (Sircol assay) [1, 5]: no effect
body weight loss caused by bleomycin induced lung injury ([2]; Group 3, inhaled tegavivint): reversed the body weight loss
lung compliance [2, 6]: reversed the compliance values to near those of the sham-treated controls
total lung collagen content (Hydroxyproline assay) [2, 6]: reversed this change and the collagen levels are closed to sham-treated controls
Compliance (ml/cm H20) [2, 7]: 0.05515 ml/cm H20 and 0.05604 ml/cm H20 and 0.06762 ml/cm H20 and 0.0543 ml/cm H20 and 0.0561 ml/cm H20
Hydroxyproline (μg/half lung) [2, 7]: 70.016 μg/half lung and 39.44 μg/half lung and 45.68 μg/half lung and 58.784 μg/half lung and 64.296 μg/half lung
Change in body weight (%) ([2]; Group 3: IT bleomycin Day 0, 5 ml of 25 mg/ml tegavivint aerosol BID Day 5-21, individual animals): −2.83% and 5.2% and 7.3% (2×) and 7.9%
proliferation/viability ([3]; 25 pM): proliferated to significantly greater cell numbers
proliferation/viability ([3]; 50 pM): proliferated to significantly greater cell numbers
cytotoxic concentrations ([3]; syngeneic fibroblasts from visibly unaffected palmar fascia, both proliferation/viability assays and visual inspection): > 100 pM
interaction with TBL1 [4]: interact with TBL1
